How the values were obtained:
Hepatitis B virus [1] = assay: Antiviral activity against Hepatitis B virus infected in human HepG2.2.15 cells assessed as inhibition of HBeAg secretion after 12 days by ELISA; assay type: functional, organism-based; conditions: HepG2 2.2.15, 288 h
Hepatitis B virus [2] = assay: Antiviral activity against Hepatitis B virus infected in human HepG2.2.15 cells assessed as inhibition of HBV DNA replication after 72 hrs by PCR analysis; assay type: functional, organism-based; conditions: HepG2 2.2.15, 72 h
Hepatitis B virus [3] = assay: Antiviral activity against Hepatitis B virus infected in human HepG2.2.15 cells assessed as inhibition of HBsAg secretion after 12 days by ELISA; assay type: functional, organism-based; conditions: HepG2 2.2.15, 288 h
[4] = Cytotoxicity against human HepG2(2.2.15) cells after 12 days by MTT assay; assay type: cell-based
[5] = Selectivity index, ratio of CC50 for human HepG2(2.2.15) cells to IC50 for Hepatitis B virus infected in human HepG2.2.15 cells by HBsAg secretion inhibition assay; assay type: functional
[6] = Selectivity index, ratio of CC50 for human HepG2(2.2.15) cells to IC50 for Hepatitis B virus infected human HepG2.2.15 cells by DNA replication assay; assay type: functional
[7] = Selectivity index, ratio of CC50 for human HepG2(2.2.15) cells to IC50 for Hepatitis B virus infected in human HepG2.2.15 cells assessed as HBeAg secretion inhibition assay; assay type: functional

Compound	IC50 (Hepatitis B virus [1])	IC50 (Hepatitis B virus [2])	IC50 (Hepatitis B virus [3])	CC50 at 288 h [4]	Ratio CC50/IC50 [5]	Ratio CC50/IC50 [6]	Ratio CC50/IC50 [7]
C=CCc1ccc(Oc2cc(CC=C)cc(O)c2O)cc1 [OBOVATOL]	–	–	–	180 µM	–	–	–
C=CCc1ccc2c(c1)-c1cc([C@@H](O)[C@H](C)O)ccc1Oc1ccc(CC=C)cc1-c1cc([C@@H](O)[C@H](C)O)ccc1O2 [(7'R,8'S,7'R,8'S)-ERYTHRO-STREBLUSLIGNANOL G]	3.24 µM	9.02 µM	1.58 µM	118 µM	74.9	13.12	36.52
COc1cc([C@H]2Oc3c(OC)cc(CCCO)cc3[C@@H]2CO)ccc1O [DIHYDRODEHYDRODICONIFERY ALCOHOL]	> 1000 µM	> 1000 µM	> 1000 µM	180 µM	–	–	–
C=CCc1ccc(Oc2ccc(/C=C/C=O)cc2)c(O)c1 [ISOSTREBLUSLIGNANALDEHYDE]	10.5 µM	61.2 µM	12.2 µM	200 µM	16.46	3.27	19.11
C=CCc1ccc(Oc2ccc(C=O)cc2O)cc1 [ISOMAGNALDEHYDE]	86.7 µM	> 1000 µM	162 µM	186 µM	1.14	–	2.14
COc1cc([C@H]2Oc3c(OC)cc(/C=C/C(=O)O)cc3[C@@H]2CO)ccc1O [GLYCOSMISIC ACID]	> 1000 µM	> 1000 µM	> 1000 µM	200 µM	–	–	–
Nc1ccn([C@@H]2CS[C@H](CO)O2)c(=O)n1 [LAMIVUDINE]	176 µM	99.5 µM	141 µM	391 µM	2.77	3.93	2.22
COc1cc([C@H]2c3cc(O)c(OC)cc3C[C@@H](CO)[C@@H]2CO)ccc1O [ISOLARICIRESINOL]	14.7 µM	12.7 µM	3.67 µM	129 µM	35.28	10.18	8.82

Further lines, with some results ahead:

IC50 (Hepatitis B virus [1])	IC50 (Hepatitis B virus [2])	IC50 (Hepatitis B virus [3])	Compound	CC50 at 288 h [4]	Ratio CC50/IC50 [5]	Ratio CC50/IC50 [6]	Ratio CC50/IC50 [7]
> 1000 µM	> 1000 µM	> 1000 µM	C=CCc1ccc(O)c(-c2cc(C[C@@H](O)CO)ccc2O)c1 [MAGNOLIGNAN A]	176 µM	–	–	–
8.83 µM	12.9 µM	10.3 µM	C=CCc1ccc(Oc2cc(CC=C)ccc2O)cc1 [ISOMAGNOLOL]	196 µM	18.91	15.13	22.14
> 1000 µM	> 1000 µM	> 1000 µM	C=CCc1ccc(O[C@@H]2O[C@H](CO)[C@@H](O)[C@H](O)[C@H]2O)c(-c2cc(C[C@@H](O)CO)ccc2O)c1	190 µM	–	–	–
26.7 µM	17.7 µM	6.98 µM	COc1cc(C2c3cc(O)c(OC)cc3C[C@@H](CO)[C@@H]2CO[C@@H]2OC[C@@H](O)[C@H](O)[C@H]2O)ccc1O (stereo partly specified)	210 µM	30.15	11.9	7.87
43.2 µM	11.6 µM	56.9 µM	C=CCc1ccc(O)c(-c2cc([C@H]3O[C@H](c4ccc(O)c(-c5cc(CC=C)ccc5O)c4)[C@@H](C)O[C@@H]3C)ccc2O)c1 [STREBLUSLIGNANOL F]	137 µM	2.41	11.87	3.17
3.76 µM	8.67 µM	2.03 µM	C=CCc1ccc(O)c(-c2cc(CC=C)ccc2O)c1 [MAGNOLOL]	63.7 µM	31.37	7.34	16.94
147 µM	> 1000 µM	> 1000 µM	C=CCc1ccc(O)c(-c2cc([C@@H](O)[C@@H](C)O)ccc2O)c1 [STREBLUSLIGNANOL]	200 µM	–	–	1.36
41.4 µM	> 1000 µM	109 µM	C=CCc1ccc(O)c(-c2cc(C=O)ccc2O)c1 [MAGNALDEHYDE]	200 µM	1.84	–	4.83
30.2 µM	> 1000 µM	162 µM	C=CCc1ccc(O)c(-c2cc(O)ccc2O)c1 [RANDAIOL]	201 µM	1.23	–	6.63

Reference: ChEMBL document CHEMBL2346656, “Anti-hepatitis B virus lignans from the root of Streblus asper” (Bioorg Med Chem Lett, 2013)
